Test results reported in patent US7888355B2, “Compositions and methods for inhibiting growth and metastasis of melanoma” (Burnham Institute for Medical Research, priority 2007, dated 2011).
Read-outs that look alike come from different tables or passages of the source.

Key:
normal mouse melanocytes = assay: Normal melanocyte viability, ATPLITE; type: cell-based; conditions: 0.1 μM, 20 h
Method: Cell lines. Mouse melanoma (SW1) and human melanoma (LU1205) cells were maintained in DMEM supplemented with 10% FBS, L-glutamine and antibiotics. The human melanoma cell lines MEWO and WM115 were maintained in RPMI supplemented with 10% FBS and antibiotics. Primary mouse melanocytes were cultured in F-12 media supplemented with 10% FBS, antibiotics, IBMX (isobuthyl-methylxantine), bovine pituitary extract, and TPA.
Mitochondrial activity and apoptosis. Cells were exposed to the chemicals for 12-48 hours as indicated in Results. To measure changes in mitochondrial activity reflective of general cell viability, the ATPLITE ATP detection assay was used according to the manufacturer's recommendations (Perkin Elmer). Apoptosis analysis was performed by flow cytometry of PI-stained cells. The percentage of cells to the left of the diploid G0/1 peak, characteristic of hypodiploid cells that have partially lost DNA, was calculated as percentage of apoptotic cells (Bhoumik et al., PNAS 101:4222-7, 2004). Analysis of changes in Caspase 8 expression pattern was performed using immunoblot analysis.
Characterization of CSL and AIGA effects on mouse melanoma cells. The structures of AIGA and CSL are depicted in FIGS. 1a and 1b. […] ATP levels were used as an indicator of cell viability and were measured using the ATPLITE ATP detection assay kit. […]

[1] = system: normal human breast cultures MCF10; assay: Toxicity on normal human breast cultures; type: cell-based
[2] = system: AP1/c-Jun transcriptional activity; assay: TRE-luciferase reporter assay in SW1 cells; type: cell-based, mouse; conditions: 8 h; for AP1/c-Jun transcriptional activity (TRE-Luc): compounds compared with ATF2 peptide; for dose from which c-Jun transcriptional activity is induced: TRE-Luc
Method: Constructs and inhibitors. An ATF2 peptide (aa 51-100) was cloned into HA-tagged pcDNA3 vector as previously described (Bhoumik et al., Cancer Res 64:8222-30, 2004). 5×Jun2tk-Luc (marker for ATF2 transcriptional activities), 5×TRE-tk-Luc (marker for AP1/c-Jun transcriptional activities) and 2×NF-B-Luc were previously described (Bhoumik et al., J Clin Invest 110:643-50, 2002). Pharmacological inhibitor of JNK (SP600125) was purchased (EMD biosciences) and added (5 μM) to cultured cells as indicated in Results.
Transcriptional analysis. Transient transfection of different reporter constructs into melanoma cells was performed using LIPOFECTAMINE PLUS transfection reagent (Invitrogen). Luciferase activity was determined as previously described (Bhoumik et al., PNAS 101:4222-7, 2004).
The effects of the two compounds on c-Jun transcriptional activity in mouse melanoma SW1 cells was assessed. SW1 cells were transfected with the TRE-luciferase plasmid and 24 h later, cells were treated with the indicated concentrations of AIGA or CSL for 8 h before proteins were prepared and level of luciferase activity was measured. ATF250-100 peptide was used as a positive control. Data shown represent results from 3 experiments. […] AIGA induced c-Jun transcriptional activity at doses starting from 0.1 μM (FIG. 2a).

[3] = system: JNK phosphorylation on residues 183/185; assay: Western blot for JNK phosphorylation in SW1 cells; type: cell-based, mouse; conditions: 0.5, 1.0, 2.0 μM
Method: Immunoblot analysis. Proteins prepared from cells at the indicated time points using RIPA buffer and 75 μg were separated on SDS-PAGE followed by immunoblot analysis using the antibodies indicated. Antibodies used were as follows: anti-JNK (Santa Cruz), phospho-JNK (Promega Corp.; Madison, Wis.), phospho c-Jun (Cell Signaling Technology, Inc.; Danvers, Mass.), c-Jun (Santa Cruz Biotechnology, Inc.; Santa Cruz, Calif.) and Caspase 8 (BD Biosciences; San Jose, Calif.).
Thus, the two compounds were evaluated to determine if they require JNK activity for their effects on melanoma cells. To this end, the ability of AIGA or CSL to affect the viability of melanoma cells in the presence of a JNK inhibitor was tested. SW1 cells, with or without a 30-minute pretreatment with the JNK inhibitor SP600125 (10 μM), were contacted with AIGA or CSL at the indicated concentrations for 20 h. ATP levels were used to measure the cell viability using the ATPLITE kit. […] To assess whether these compounds affect JNK activity, changes in JNK phosphorylation on residues 183/185, which are required for its kinase activity, were monitored. […] Total level of JNK was analyzed in parallel. […]

Mdm2 and p53 = assay: Stability of short-lived proteins; type: cell-based; conditions: 0.3-1 μM, data not shown
Text: CSL was also shown to inhibit NF-κB activation through the inhibition of IKB kinase and TAK1 activities. […] Thus, it is likely that the ability of CSL to attenuate NF-κB activity would result in increased JNK activity, which is consistent the findings herein. It is the increase in JNK activity, and consequently of its substrate c-Jun, in concert with inhibition of ATF2 activities that brings about the potent cytotoxic effects of both CSL and AIGA on melanoma cells, similar to what was previously shown for the ATF2 peptides.

Row | SMILES | toxicity on normal mouse melanocytes (normal mouse melanocytes) [%] | toxic effect on normal human breast cultures MCF10 [1] | AP1/c-Jun transcriptional activity (TRE-Luc) [2] | dose from which c-Jun transcriptional activity is induced [2] [µM] | phosphorylation of JNK on residues 183/185 [3] | toxic effect on normal human breast cultures MCF10 ([1]; data not shown) | stability of short-lived proteins, including Mdm2 and p53 (Mdm2 and p53)
1 | CC(=O)Oc1c2c(c(CC=C(C)C)c3c1C(=O)C1=C[C@@H]4CC5C(C)(C)OC(C/C=C(\C)C(=O)O)(C4=O)[C@@]15O3)OC(C)(CCC=C(C)C)C=C2 (some centres unmarked) [AIGA, Acetyl isogambogic acid] | 40 | Neither CSL nor AIGA elicited toxic effect | stronger activation of c-Jun transcription | ≥ 0.1 | induced phosphorylation of JNK |  | 
2 | CC1=C(O)C(=O)C=C2C1=CC=C1[C@@]2(C)CC[C@@]2(C)[C@@H]3C[C@](C)(C(=O)O)CC[C@]3(C)CC[C@]12C [Celastrol] | 10 |  | stronger activation of c-Jun transcription | ≥ 0.01 | induced phosphorylation of JNK | Neither CSL nor AIGA elicited toxic effect | did not affect
